Measured values published in ChEMBL document CHEMBL4813952, “Axial Chiral Binaphthoquinone and Perylenequinones from the Stromata of Hypocrella bambusae Are SARS-CoV-2 Entry Inhibitors” (J Nat Prod, 2021).
Calls of active or inactive are those of the source. No cut-off for these calls is given here.

Test system: Vesicular stomatitis virus
Test: Antiviral activity against pseudotype VSV harbouring glycoprotein infected in human 293T/ACE2 cells assessed as inhibition of viral infection measured after 48 hrs by luciferase reporter gene assay
Type: functional, organism-based

SMILES	Activity
COc1c(O)c2c(=O)cc(OC)c3c4c(OC)cc(=O)c5c(O)c(OC)c6c(c(c1C[C@](C)(O)[C@H]6C(C)=O)c23)c54	inactive
COC1=C(CC(C)=O)C(=O)c2c(c(O)cc(OC)c2-c2c(OC)cc(O)c3c2C(=O)C(CC(C)=O)=C(OC)C3=O)C1=O	inactive
COc1c2c3c4c(c(OC)c(=O)c5c(O)cc(OC)c(c6c(OC)cc(O)c(c1=O)c63)c54)[C@@H](C(C)=O)[C@@](C)(O)C2 [HYPOCRELLIN A]	inactive
